Entries after “also recorded” stand apart in the source; their conditions may differ.
Experiments:
[1] = tested on: rat aortic smooth muscle rings; assay: Relaxation of phenylephrine-contracted rat aortic smooth muscle rings; conditions: rings precontracted with 10 μM phenylephrine; for relaxation of aortic smooth muscle ring: 100 nM to 100 μM test compound; for relaxation compared with reference NO donor (ISDN or GSNO): comparator as in the value
Procedure: Male Sprague-Dawley rats (Charles River Laboratories (Wilmington, Mass.) were euthanized by intraperiton injection of a high dose of sodium pentobarbitone (80–100 mg/kg). The thoracic aorta was rapidly excised and immediately placed in a Petri dish containing warm (37° C.) oxygenated (95% O2 and 5% CO2) Kreb's buffer (composition per millimolar: NaCl (119); KCl (4.69); CaCl2.H2O (2.52); MgSO4.7H2O (0.57); NaHCO3 (25); NaH2PO4.H2O (1.01) and glucose (11.1). Under a stereoscopic dissecting microscope, the aorta was cleaned, freed from adhering fat and connective tissues. The tissue was cut into ring segments, each approximately 2–3 mm in length.
For experiments to measure relaxation of the tissue under various conditions, a stainless steel tissue holder and an U-shaped stainless steel wire were inserted into the lumen of the aortic ring. The tissue holder anchored the ring at the bottom of the organ bath whereas the end of the U-shaped steel wire was tied with fine silk thread so that it connected to the FT-202 transducer. The tissue holder and the steel wire along with the aortic ring were then suspended in a 5-mL double-jacketed temperature-controlled glass organ bath (Radnoti Glass Technology, Inc., Monrovia, Calif.) filled with fresh Kreb's buffer. A mixture of 95% O2 and 5% CO2 was bubbled through a porous sintered disc at the bottom of the bath. The rings were given an initial resting tension of 1.5 g and the preparation was allowed to equilibrate at the initial tension for about 90 minutes. During this equilibration period, the bath fluid was changed every 15 minutes and replaced with fresh prewarmed (37° C.) Kreb's buffer. The isometric tension of the aortic muscle at rest and its response to different stimuli were recorded on a Power Macintosh 6100 computer via a MacLab 8/S computer interface (CB Sciences, Inc, Milford, Mass.) after an initial amplification through a low-noise ETH-400 bioamplifier (CB Sciences, Inc, Milford, Mass.). Contractile responsiveness of the tissue strips was established with 10 μM phenylephrine and the strips were incubated with the drug for 20 minutes to establish a steady level of contraction. To test the relaxation effects, test compounds were added to the phenylephrine-precontracted strips in the tissue bath at cumulative concentrations of 0.1 μM to 0.1 mM. Concentration of test compounds was increased only after relaxation at the previous concentration had reached a plateau level.

ovine COX-1 = target: T1, ovine COX-1 (Ovis aries, UniProt P05979); assay: biochemical; conditions: for IC50: ovine COX-1
T1 sequence (P05979 25-600): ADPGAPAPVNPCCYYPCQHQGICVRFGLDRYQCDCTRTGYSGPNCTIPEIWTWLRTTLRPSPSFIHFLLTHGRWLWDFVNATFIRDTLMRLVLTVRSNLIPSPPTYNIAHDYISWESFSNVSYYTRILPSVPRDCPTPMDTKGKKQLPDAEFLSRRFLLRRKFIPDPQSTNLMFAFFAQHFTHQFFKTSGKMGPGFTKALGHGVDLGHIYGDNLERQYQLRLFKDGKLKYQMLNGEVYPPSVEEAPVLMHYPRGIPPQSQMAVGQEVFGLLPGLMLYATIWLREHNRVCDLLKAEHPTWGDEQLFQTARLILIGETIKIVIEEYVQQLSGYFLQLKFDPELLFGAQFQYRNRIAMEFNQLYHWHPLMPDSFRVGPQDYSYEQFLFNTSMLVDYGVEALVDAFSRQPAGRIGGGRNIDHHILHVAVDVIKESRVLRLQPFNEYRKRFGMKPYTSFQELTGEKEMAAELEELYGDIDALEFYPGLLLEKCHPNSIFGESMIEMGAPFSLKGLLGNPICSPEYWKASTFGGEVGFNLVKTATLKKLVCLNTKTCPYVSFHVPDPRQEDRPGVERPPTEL
Procedure: (§1) The ovine COX-1 and COX-2 activities and the measurement of the prostaglandin products synthesized were performed using the COX Inhibitor Screening Assay (Cayman Chemical, Ann Arbor, Mich., which also contained the Prostaglandin Screening EIA Kit, used for prostaglandin quantification). The test compounds were dissolved at 50 times the highest final reaction concentration in DMSO or any other suitable solvent as stock solutions. These stock solutions were then diluted in the same solvent. Eight glass test tubes (13×100 mm) were placed in a 37° C. water bath. To each test tube was added 950 μL of reaction buffer (0.1 M Tris-HCl, pH 8.0, containing 5 mM EDTA, and 2 mM phenol), 10 μL of 100 µM heme solution, and 10 μL (5 units) of either ovine COX-1 or COX-2 and the resulting mixture was incubated with the enzyme for 2 minutes. Twenty μL of the solvent was added to one tube (100% initial activity or solvent control) and 20 μL of each dilution of the test compound was added to one tube each. Each tube was vortexed immediately after the addition. The enzyme was incubated with the inhibitor for 3.5 minutes at 37° C. The enzymatic reaction was then initiated by the addition of 10 μL of freshly prepared 10 mM arachidonic acid (neutralized with KOH), vortexed and then incubated for 2 minutes at 37° C. The reaction was terminated by the addition of 50 μL of 1 M HCl, vortexed and placed at room temperature. One hundred microliters of a saturated stannous chloride solution (50 mg/mL of 0.1 M HCl) was added and the reaction mixture was allowed to stand at room temperature for at least 5 minutes.
(§2) The prostaglandins (PG) produced in the reactions were assayed, after a 2,000-fold dilution, using the Prostaglandin Screening EIA Kit (Cayman Chemical, Ann Arbor, Mich.). The assay-contains an antibody with broad specificity for all the prostaglandin families (PGF, PGE, PGD, and thromboxane B-type) synthesized in the COX-1/COX 2 reactions. The synthesized prostaglandin competes with a PG-tagged acetylcholine esterase tracer for binding to the PG antibody. Binding of synthesized PG lowers the calorimetric development of the Ellman's Reagent (computed as % B/B0). The actual amount of synthesized PG was interpolated from a standard curve using known amounts of supplied prostaglandin E2 (PGE2) (PGE2 concentration vs. % B/B0). The data generated were the mean±standard deviation of triplicate wells in the EIA for a single reaction at a given inhibitor concentration.

ovine COX-2 = target: T2, ovine COX-2 (Ovis aries, UniProt P79208); assay: biochemical; format: biochemical; conditions: for IC50: ovine COX-2, read-out: COX-2 IC50
T2 sequence (P79208 17-603): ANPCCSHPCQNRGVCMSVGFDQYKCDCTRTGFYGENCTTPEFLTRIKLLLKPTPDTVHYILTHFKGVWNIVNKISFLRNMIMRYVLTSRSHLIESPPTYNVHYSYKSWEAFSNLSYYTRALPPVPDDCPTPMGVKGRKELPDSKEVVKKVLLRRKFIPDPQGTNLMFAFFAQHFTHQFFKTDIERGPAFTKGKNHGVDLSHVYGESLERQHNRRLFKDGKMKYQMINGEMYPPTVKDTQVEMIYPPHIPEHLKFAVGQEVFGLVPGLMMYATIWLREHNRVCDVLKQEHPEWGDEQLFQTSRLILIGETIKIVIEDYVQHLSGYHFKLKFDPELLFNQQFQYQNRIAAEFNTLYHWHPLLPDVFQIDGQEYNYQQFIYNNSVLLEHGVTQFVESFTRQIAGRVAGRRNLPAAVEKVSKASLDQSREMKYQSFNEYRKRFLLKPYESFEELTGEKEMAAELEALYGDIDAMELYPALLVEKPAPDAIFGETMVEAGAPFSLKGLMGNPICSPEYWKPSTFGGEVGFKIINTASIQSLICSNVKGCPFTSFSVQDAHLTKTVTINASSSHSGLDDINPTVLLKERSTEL
Procedure: as §1, §2

[2] = tested on: carrageenan-induced rat paw edema; assay: Carrageenan-induced rat paw edema test; format: in vivo; conditions: rats dosed intragastrically, paw volume 3 hours after carrageenan
Procedure: The carrageenan-induced rat paw edema test was used to measure antiinflammatory activity. The paw edema test was performed according to the method of Winter et al, Proc. Soc. Exp. Biol. Med. 111: 544–547, 1962. Male Sprague-Dawley rats (200–250 g) were fasted for 24 hours with water ad libitum. The rats were dosed intragastrically with test compounds in a volume of 5 mL/kg. One hour after dosing the paw volume was measured. Then each rat received a subplantar injection of 50 μl of 1% suspension of carrageenan. Three hours later, the paw volume was measured and compared with the initial volume measured […]. The increase in paw volume is presented as the mean±SEM for 5 rats per group. Data were analyzed by performing an ANOVA test followed by a Student-Keuls post hoc test.

SMILES	relaxation of aortic smooth muscle ring [1]	relaxation compared with reference NO donor (ISDN or GSNO) ([1]; Citrate Salt)	IC50 (ovine COX-1) [µM]	IC50 (ovine COX-2) [µM]	COX-2 inhibition potency compared with the parent compound (ovine COX-2; ovine enzymes, from Table 1)	paw volume (antiinflammatory activity) [2]	inhibition at 100 µM (ovine COX-1; Ovine COX-1 (footnote a), at 100 μM) [%]	relaxation compared with reference NO donor (ISDN or GSNO) [1]
Cc1onc(-c2ccccc2)c1-c1ccc(S(=O)(=O)NC(=O)CCC(=O)OCCC2(SN=O)CCN(C)CC2)cc1.O=C(O)CC(O)(CC(=O)O)C(=O)O [Example 3g, 2-(1-Methyl-4-(nitrosothio)-4-piperidyl)ethyl 3-(N-((4-(5-methyl-3-phenylisoxazol-4-yl)phenyl)sulfonyl)carbamoyl)propanoate Citrate Salt]	induced the relaxation of the aortic ring	comparable to that obtained with GSNO	> 300	70	not as potent as the parent non-nitrosylated compound			
CS(=O)(=O)c1ccc(-c2nc3cc(CO)ccn3c2-c2ccc(F)cc2)cc1 [Example 5a, 1-(3-(4-Fluorophenyl)-7-(hydroxymethyl)(3a-hydroimidazolo(1,2-a)pyridin-2-yl))-4-(methylsulfonyl)benzene, reference compound]			> 300	12				
Cc1ccc(-c2cc(C(F)(F)F)nn2-c2ccc(S(N)(=O)=O)cc2)cc1 [Celecoxib, 4-(5-(4-methylphenyl)-3-(trifluoromethyl)-1H-pyrazol-1-yl)benzenesulfonamide]						reduced the paw volume		
NS(=O)(=O)c1ccc(-c2c(-c3ccccc3)noc2CO)cc1 [Example 2a, 4-(5-(Hydroxymethyl)-3-phenylisoxazol-4-yl)benzenesulfonamide, reference compound]	did not relax the tissue; also recorded: did not relax the aortic ring		> 300			reduced the paw volume	0	
NS(=O)(=O)c1ccc(-n2nc(CO[N+](=O)[O-])cc2-c2ccc(Cl)cc2)cc1 [Example 1b, 4-(5-(4-Chlorophenyl)-3-((nitrooxy)methyl)-3-hydropyrazolyl) benzenesulfonamide]	induced the relaxation of the aortic ring		190	10				more potent than that obtained by the nitrate compound, isosorbide dinitrate

— US7166618B2, “Nitrosated and nitrosylated cyclooxygenase-2 inhibitors, compositions and methods of use” (NitroMed, Inc., priority 1999, dated 2007)
